Experimental data published in the RepoRT retention time repository.

Assay: Agilent ZORBAX 300 SB-C18, 150 × 1 mm, 3.5 µm; A: water + 0.01% heptafluorobutyric acid; B: acetonitrile + 0.01% heptafluorobutyric acid; gradient (min/%B) 0/0 100/90
Conditions: stereoisomer not certain

| SMILES | LC retention time [min] |
| --- | --- |
| CNC1C(OC2OC(CO)C(N)C(O)C2O)OC2CC(N)C(OC3C(N)CC(N)C(O)C3O)OC2C1O (centres undefined) | 8.39 |
| NCc1cccc(CN)c1 | 7.04 |
| CCCCCCC(C)NCCO (centres undefined) | 9.31 |
| COC(=O)CC1CC(C)(C)NC(C)(C)C1 | 8 |
| CCCCNCC | 7.1 |
| CCCCCCCCCCCCCCCCN | 16.7 |
| C=CCC1(CC=C)CNCCN1 | 7.33 |
| O=P(O)(O)CN(CCN(CP(=O)(O)O)CP(=O)(O)O)CP(=O)(O)O | 1.09 |
| NC(=O)C1(N2CCCCC2)CCN(C(=O)C2CCCCC2)CC1 | 8.4 |
| COc1cccc(C2(O)CCCCC2CN(C)C)c1 (centres undefined) | 9.38 |
| CCC(=O)Nc1ccc(N2CCN(C(=O)C(C)C)CC2)cc1 | 9.46 |
| O=c1[nH][nH]c(=O)c2nccnc12 | 3.97 |
| CC1(C)CC(NCc2ccncc2)CC(C)(C)N1 | 7.45 |
| CN1CCC(=O)C2CCCCC21 (centres undefined) | 7.15 |
| CN1CCCN(C)C1=O | 6.94 |
| CC(C)(C)c1ccc2[nH]c3c(c2c1)CCCC3=O | 16.5 |
| CNCc1cccc(OC)c1OC | 7.9 |
| COc1ccc(Cc2c(O)n(C)c(=O)n(C)c2=O)c(OC)c1OC | 11.2 |
| Cn1c(=O)c2n[nH]c(=S)nc2n(C)c1=O | 7.17 |

| SMILES | LC retention time [min] |
| --- | --- |
| CCCCCCCCNCCCCCCCC | 14.8 |
| O=C1C(=Cc2cccs2)CCCC1=Cc1cccs1 | 18.5 |
| CC(C)NCCCNC(C)C | 7.27 |
| CC(=O)C1CCC2C3CC(C)C4=CC(=O)CCC4(C)C3C(O)CC12C (centres undefined) | 14.8 |
| COC(=O)C1C2CC3c4[nH]c5cc(OC)ccc5c4CCN3CC2CC(OC(=O)c2cc(OC)c(OC)c(OC)c2)C1OC (centres undefined) | 12.4 |
| CC(C)(C)C(=N)C(C)(C)C | 8.06 |
| C#CC(C)(N)CC (centres undefined) | 6.91 |
| Cc1cnc[nH]1 | 5.66 |
| CC(=O)c1c(C(C)=O)c(C)n(C)c1C | 8.65 |
| CC(C)CNCCN1CCOCC1 | 7.31 |
| CCCc1ccc(O)c(N)c1 | 8.64 |
| Cc1ccc(N)c(N)c1 | 7.42 |
| C#CC1(NC(C)=O)CCCCC1 | 9.46 |
| Cn1c(=O)n(-c2cccc(N)c2)c(=O)n1C | 7.06 |
| Cc1ccc(C)c2c1ccn2C | 15.8 |
| COc1ccc(CN2CCC(N)CC2)cc1OC | 7.7 |
| Nc1ccc2[nH]ncc2c1 | 5.74 |
| CNC(=S)NNC(C)=O | 2.17 |

Second part, the compound after the results:

| LC retention time [min] | SMILES |
| --- | --- |
| 10.8 | COc1cc(C(=O)Nc2ccc(N3CCCC3=O)cc2)cc(OC)c1OC |
| 8.5 | Cn1c(=O)c2cc(C(=O)O)ccc2n(C)c1=O |
| 9.03 | Cc1nc2ccccc2c(=O)o1 |
| 13.6 | Cc1[nH]c2ccccc2c1CCNC(=O)C1CCCCC1 |
| 11.8 | O=C(NNC(=O)C1CCCCC1C(=O)O)C(c1ccccc1)c1ccccc1 (centres undefined) |
| 10.7 | COc1ccc(OC)c(NC(=O)Cn2c(=O)n(C)c(=O)n(C)c2=O)c1 |
| 16.3 | CC(=NNC(=O)c1cc2ccccc2cc1O)c1ccc(-c2ccccc2)cc1 |
| 13.3 | Cc1cccc(C(=O)NNC(=O)c2ccccc2C(=O)c2ccccc2)c1 |
| 7.98 | O=C(Nc1cccc(C2=NCCN2)c1)Nc1cccc(C2=NCCN2)c1 |
| 13.4 | CC(C)(C)NC(=S)NCc1ccccc1 |
| 16.4 | CC(C)(C)c1ccc(-c2cc(C(=O)O)c3c(ccc4ccccc43)n2)cc1 |
| 8.8 | CN1CCc2cccc3c2C1Cc1ccc(O)c(O)c1-3 (centres undefined) |
| 15.1 | O=C(CCCN1C(=O)c2ccccc2C1=O)OCc1ccccc1 |
| 16.2 | CCCOC(=O)c1ccc(NC(=O)c2ccc(C)cc2)cc1 |
| 6.75 | COc1ccccc1-n1c(=O)[nH][nH]c1=O |
| 14.3 | COC(=O)c1ccc(NC(=O)Nc2cccc3ccccc23)cc1 |
| 7.52 | CN1CCN(C(=O)c2nn(C)c(=O)c3ccccc23)CC1 |
| 11.6 | Nc1cccc2oc3ccccc3c12 |
| 9.2 | O=C(O)CNc1ccccc1C(=O)O |
| 15.7 | COc1ccc(C(=O)C=Cc2ccccc2)cc1 |
| 14.5 | COc1ccc(C=CC(=O)c2ccccc2)cc1OC |
| 10.2 | CC1CC(O)(CC(O)(c2ccccc2)c2ccccc2)C(C)CN1C (centres undefined) |
| 10.5 | CC(NC(=O)c1ccc(CN2CCc3ccccc3C2)cc1)c1ccccc1 (centres undefined) |
| 16.2 | COC(=O)Cn1c2c(c3ccccc31)CCCC2 |
| 19 | c1ccc(-c2cc(-c3ccccc3)n(-c3ccccc3)n2)cc1 |
| 8.48 | CC(NCCc1ccc(O)cc1)C(O)c1ccc(O)cc1 (centres undefined) |

| LC retention time [min] | SMILES |
| --- | --- |
| 8.16 | O=C(Nc1ccccc1)C(=O)NC(CO)(CO)CO |
| 11 | CCC(C)c1ccccc1NC(=S)Nc1cccnc1 (centres undefined) |
| 7.86 | CN(CCNc1ccccc1)C(N)=O |
| 9.9 | S=C(NN=Cc1cccnc1)Nc1ccccc1 |
| 7.41 | CC(=O)Nc1ccc(C(=O)NCc2ccccn2)cc1 |
| 13.6 | Nc1ccc2c(c1)C(=O)N(c1ccc3ccccc3c1)C2=O |
| 11.7 | CNCCC=C1c2ccccc2CCc2ccccc21 |
| 12.5 | O=C(C=Cc1ccccc1)c1cc(O)ccc1O |
| 7.72 | Cc1nn(CC(=O)NCCO)c(=O)c2ccccc12 |
| 9.59 | COC(=O)c1cccc(N=C2N=C(N)c3ccccc32)c1 |
| 13.5 | CCn1c2ccccc2c2cc(C(=O)O)ccc21 |
| 20.3 | CN(c1ccccc1)c1ccc(C=C2CCc3ccccc3C2=O)cc1 |
| 17.8 | O=C(Nc1ccc(C(=O)c2ccccc2)cc1)c1ccc(-c2ccccc2)cc1 |
| 13.3 | COc1cccc(OC)c1OCc1nc2ccccc2nc1C |
| 16.3 | O=C(NCCc1ccc2oc3ccccc3c2c1)C1CCCCC1 |
| 9.32 | O=C1CNCC(=O)N1CCc1ccccc1 |
| 12.7 | c1ccc(Cn2c3ccccc3n3c(Nc4ccccc4)nnc23)cc1 |
| 11.1 | CCC(=O)Nc1ccc(NCC(=O)Nc2ccc(C)cc2C)cc1 |
| 14.5 | CCCCc1c(O)c2ccccc2n(-c2ccccc2)c1=O |
| 13.7 | Oc1cccc(-c2cc(-c3ccccc3)c3c(ccc4ncccc43)n2)c1 |
| 11.8 | O=C(O)Cn1c(=O)c(-c2ccccc2)nc2ccccc21 |
| 5.59 | NC(CC(=O)O)c1ccccc1 (centres undefined) |
| 15.9 | CCOc1cc(C(=O)N(CC)c2ccccc2)cc(OCC)c1OCC |
| 8.71 | O=C(NCCNC(=O)c1ccccn1)c1ccccn1 |
| 8.85 | COc1cc(C)c(NC(C)=O)c(C)c1 |
| 8.19 | CNc1ccccc1C |
